Results: PMC2424174, “Suppression of Tumor Growth and Angiogenesis by a Specific Antagonist of the Cell-Surface Expressed Nucleolin” (PLoS ONE, 2008)

Columns and labels:
HUVECs [1] = test: HB-19 entry in HUVECs, confocal microscopy; type: cell-based, human; conditions: 5 µM HB-19/Btn, 1 hour, 37°C
Procedure: Figure 3 Specific binding and entry of HB-19 in endothelial cells. (A) HB-19/Btn forms a stable complex with nucleolin expressed on the surface of HUVECs. Cells were incubated (45 min, 20°C) with 0, 1, 2, 4, 8 and 12 µM of HB-19/Btn before preparation of surface/cytoplasmic and nuclear extracts and recovery of surface nucleolin from the surface/cytoplasmic extracts as in Figure 2A. Material extracted from 2×10^7 and 2×10^6 cells was analyzed in panels Surface and Surface/Cytoplasm or Nucleus, respectively. Immunoblotting was with the anti-nucleolin mAb D3. (B) The specific binding of HB-19/Btn to HUVECs. The binding of 1 µM HB-19/Btn was studied at 4 °C by FACScan analysis. To show the specificity of binding, the reaction was carried out in the absence or presence of 50 µM HB-19, F3, or 9Arg peptides. The ordinate gives the relative cell number, whereas the abscissa gives the relative fluorescence intensity. (C) HB-19 entry in HUVECs. Cells were incubated with 5 µM of HB-19/Btn (1 hour, 37°C) before fixation in PFA (for surface binding) or PFA-Triton (for entry), respectively. Cells were then successively incubated with rabbit anti-biotin antibodies and goat Texas Red-conjugated anti-rabbit IgG, and processed for confocal microscopy. The scans of cells toward the middle cell layer are presented (with the DAPI stained nuclei). […]

tumor cells = test: Apoptosis in HB-19 treated cells; type: cell-based; conditions: not shown
HUVECs [2] = test: HUVEC migration assay (modified Boyden chamber); type: cell-based, human; conditions: VEGF165; 1 µM HB-19 or 0.1 µM mAb MS-3; 4 h, 37°C; two independent experiments
Procedure: Figure 6 Inhibition of in vitro and in vivo angiogenesis by HB-19. (A) HB-19 inhibits proliferation of HUVECs. Twenty-four hours after seeding HUVECs in 2% FBS, cells were stimulated by 0.25 nM VEGF165, in the absence or presence of 1 µM HB-19 or 0.1 µM anti-nucleolin mAb MS-3 as indicated. After 72 h, cell number was determined by crystal violet staining. The data are reported as the mean of triplicate samples. (B) HB-19 inhibits migration of HUVECs. Cell migration was studied using a modified Boyden chamber. Cells were incubated (4 h at 37°C) with VEGF165, HB-19, or anti-nucleolin mAb MS-3 as above. Cells that migrated through the pore to the lower filter surface were counted and are shown as number per microscopic field at ×100 magnification. […] Tubular network structures were quantified using phase contrast microscopy (×100). […] Quantification of endothelial cell invasion into the Matrigel was determined and is expressed as a mean of five fields per section from 3 Matrigel-plug sections per mouse. The results are expressed as the mean of five mice per group. […]
HUVEC migration assays were performed using a 24-well chemotaxis chamber (Transwell, Corning Costar, France). […] The cells that had migrated through the pores to the lower filter surface were counted in three random high power fields in each well (magnification 100×). […]

[3] = test system: MDA-MB-231 tumor-cell xenografts; test: MDA-MB-231 xenograft in nude mice; type: in vivo, human
Procedure: Figure 8 HB-19 inhibits tumor growth in the nude mice. (A) HB-19 inhibits the growth of MDA-MB-231 tumor-cell xenografts. Cells (2×10^6) were injected subcutaneously into the right flank of female nude mice. Two weeks later, mice with a palpable tumor of approximately 40 mm^3 in volume were randomly separated into three groups (n = 5) and were given peritumoral injections 3 times/week of 0.1 ml PBS alone (Control), HB-19 (5 mg/kg), or Tamoxifen (Tmx) 10 mg/kg) for 6 weeks. (B) HB-19 inhibits the growth of MDA-MB-435 tumor-cell xenografts. Cells (1×10^6) were injected in the mammary fat pad of female nude mice. Two weeks later, mice with a palpable tumor were randomly separated into three groups (n = 10) and were given intraperitoneal injections 3 times/week of 0.1 ml PBS alone (Control), HB-19 (5 mg/kg), or 5-fluouracil (5-FU, 40 mg/kg) for 8 weeks. At the end of each experiment (in A and B), mice were sacrificed and the tumors were excised and weighed. The results are presented as the mean weight ±standard deviation (±S.D.) obtained from the number of mice in each group. (C, D) Inhibition of tumor development in mice treated by intraperitoneal (i.p.) and subcutaneous (s.c.) administration of HB-19. MDA-MB-231 tumor bearing mice in three groups (n = 10) were treated with HB-19 (10 mg/kg) by i.p. or s.c. injections, 3 times/week for 28 days. […] Statistical significance: *p<0.05, **p<0.01, ***p<0.001.

[4] = HB-19 10 mg/kg, intraperitoneal, 3 times/week, 28 days, n = 10

Substance: pseudo-tripeptide Lysψ(CH2N)-Pro-Arg coupled to a template (H2NLys-Lys-Lys-Gly-Pro-Lys-Glu-Lys-AhxCONH2) [HB-19, pseudopeptide presenting pentavalently the pseudo-tripeptide Lysψ(CH2N)-Pro-Arg coupled to a template]
- internalization and subcellular localization (HUVECs [1]): internalized and is concentrated in the cytoplasm without translocation into the nucleus
- apoptosis (tumor cells): not observed
- inhibition of HUVEC migration (HUVECs [2]): inhibited dramatically both of these events down to levels comparable to that of unstimulated cells
- antitumoral activity compared with tamoxifen ([3]; HB-19 5 mg/kg vs tamoxifen 10 mg/kg, peritumoral): superior to the conventional cancer drug tamoxifen
- tumor elimination ([3]; HB-19 5 mg/kg, peritumoral, 3 times/week, 6 weeks): in some cases eliminated measurable tumors
- inhibition of tumor growth ([3]; HB-19 5 mg/kg, peritumoral, 3 times/week, 6 weeks, n = 5): > 95%
- complete eradication of the tumor [3, 4]: Complete eradication of the tumor was observed in several mice
- inhibition in tumor volume [3, 4]: more than 95%
- inhibition in tumor volume ([3]; HB-19 10 mg/kg, subcutaneous, 3 times/week, 28 days, n = 10): more than 95%
